The values below come from PubChem BioAssay (NCI).

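Results reflect a 48-hour exposure of cells in 96-well plates to compound at five concentrations. TGI marks complete inhibition of growth.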 Where only a bound is given, the exact number is not on record here.

Test systems include OVCAR-4 ovarian; HOP-92 NSCLC; SF-295 CNS; SF-268 CNS; HL-60(TB) leukemia; NCI/ADR-RES ovarian; T-47D breast; IGROV1 ovarian; MALME-3M melanoma; NCI-H522 lung; KM12 colon; K-562 leukemia; MCF7 breast; SW-620 colon; OVCAR-3 ovarian; CCRF-CEM leukemia; RPMI-8226 leukemia; NCI-H460 lung; EKVX NSCLC; OVCAR-8 ovarian.
Common to all, as to test: growth of human tumour cells (NCI), 48 h

Turning to `S=C1SSC2N=CC=CC12` (stereo not given), the TGI in the assay on OVCAR-4 ovarian was 34.2 µM; in the assay on HOP-92 NSCLC, greater than 100 µM; in the assay with SF-295 CNS, greater than 100 µM; in the assay on SF-268 CNS it was greater than 100 µM; in the assay on HL-60(TB) leukemia, greater than 100 µM; in the assay on NCI/ADR-RES ovarian, greater than 100 µM. In addition, the TGI was greater than 100 µM with T-47D breast; greater than 100 µM in the assay with IGROV1 ovarian; greater than 100 µM with MALME-3M melanoma; greater than 100 µM in the assay with NCI-H522 lung; 33 µM in the assay with KM12 colon; greater than 100 µM with K-562 leukemia. Further, the TGI is greater than 100 µM with MCF7 breast; greater than 100 µM in the assay with SW-620 colon; greater than 100 µM in the assay with OVCAR-3 ovarian; 71.1 µM with CCRF-CEM leukemia; greater than 100 µM in the assay on RPMI-8226 leukemia; greater than 100 µM with NCI-H460 lung. In addition, the TGI with EKVX NSCLC and in the assay with OVCAR-8 ovarian was greater than 100 µM throughout.
`Fc1ccc(C(=C2CCN(CCc3ccc4[nH]c(=S)[nH]c4c3)CC2)c2ccc(F)cc2)cc1`: the TGI turned out to be 12.7 µM with OVCAR-4 ovarian; 8.51 µM in the assay on HOP-92 NSCLC; 18.8 µM with SF-295 CNS; 25.9 µM with SF-268 CNS; 4.63 µM with HL-60(TB) leukemia; 37.3 µM in the assay on NCI/ADR-RES ovarian. Besides, the TGI was 4.1 µM in the assay on T-47D breast; 17 µM with IGROV1 ovarian; 3.89 µM with MALME-3M melanoma; 3.65 µM in the assay with NCI-H522 lung; 19.1 µM in the assay with KM12 colon; greater than 100 µM with K-562 leukemia. Moreover, the TGI in the assay with MCF7 breast was 5.94 µM; with SW-620 colon, greater than 100 µM; with OVCAR-3 ovarian, 4.23 µM; in the assay with CCRF-CEM leukemia it was greater than 20.6 µM; with RPMI-8226 leukemia it was 8.67 µM; with NCI-H460 lung it was 8.94 µM. In addition, the results for the TGI with EKVX NSCLC and in the assay with OVCAR-8 ovarian were 9.04 µM and 8.26 µM, respectively.
As to `Nc1nc(NCC2(CO)CC2)cc(=O)[nH]1`, the TGI in the assay with OVCAR-4 ovarian, in the assay with HOP-92 NSCLC, with SF-295 CNS, with SF-268 CNS, in the assay with HL-60(TB) leukemia and in the assay with NCI/ADR-RES ovarian was greater than 100 µM throughout. Further, the TGI in the assay with T-47D breast, in the assay on IGROV1 ovarian, with MALME-3M melanoma, in the assay with NCI-H522 lung, with KM12 colon and with K-562 leukemia was greater than 100 µM in each case. Besides, the TGI in the assay with MCF7 breast, in the assay with SW-620 colon, in the assay with OVCAR-3 ovarian, with CCRF-CEM leukemia, in the assay with RPMI-8226 leukemia and in the assay on NCI-H460 lung was greater than 100 µM in each case. For the same compound, the TGI in the assay with EKVX NSCLC and in the assay on OVCAR-8 ovarian was greater than 100 µM each time.
Turning to `CC(CO)CCNc1ncnc2c1ncn2CCC(=O)OC(C)(C)C` (stereo not given), the TGI in the assay with OVCAR-4 ovarian, in the assay on HOP-92 NSCLC, in the assay on SF-295 CNS, in the assay with SF-268 CNS, in the assay on HL-60(TB) leukemia and in the assay with NCI/ADR-RES ovarian was greater than 100 µM throughout. The TGI with T-47D breast, in the assay on IGROV1 ovarian, in the assay on MALME-3M melanoma, in the assay with NCI-H522 lung, with KM12 colon and with K-562 leukemia was greater than 100 µM in each case. Further, the TGI in the assay with MCF7 breast, with SW-620 colon, in the assay with OVCAR-3 ovarian, in the assay on CCRF-CEM leukemia, in the assay with RPMI-8226 leukemia and in the assay on NCI-H460 lung was greater than 100 µM in each case. The TGI in the assay with EKVX NSCLC and in the assay on OVCAR-8 ovarian was greater than 100 µM in each case.
Take `COc1cc(O)c(C(=O)/C=C/c2ccc(O)cc2)cc1Oc1ccc(/C=C/C(=O)c2ccc(O)cc2O)cc1`: the TGI with OVCAR-4 ovarian is 16 µM; in the assay on HOP-92 NSCLC it was 22.2 µM; in the assay with SF-295 CNS it was 18.2 µM; in the assay with SF-268 CNS, 20.5 µM; in the assay on HL-60(TB) leukemia, 34 µM; in the assay on NCI/ADR-RES ovarian, 26.7 µM. Moreover, the TGI in the assay on T-47D breast was greater than 50 µM; in the assay on IGROV1 ovarian it was 15 µM; with MALME-3M melanoma, 17.6 µM; with NCI-H522 lung it was 16 µM; in the assay on KM12 colon, 15.5 µM; with K-562 leukemia, 22.8 µM. The TGI in the assay on MCF7 breast worked out at 22.9 µM; with SW-620 colon it was 38.5 µM; in the assay with OVCAR-3 ovarian, 17 µM; in the assay on CCRF-CEM leukemia, 29.4 µM; in the assay with RPMI-8226 leukemia, 17.6 µM; in the assay with NCI-H460 lung, 30.4 µM. The TGI in the assay with EKVX NSCLC was found to be 27.7 µM; in the assay on OVCAR-8 ovarian, 24.7 µM.
